Experimental data: patent US11591331B2, “PARP1 inhibitors and uses thereof” (Xinthera, Inc., priority 2021, dated 2023)

What was measured:
[1] = system: MDA-MB-436 (mutated BRCA1) cell lines; assay: Cell growth inhibition assay (CellTiter-Glo cell viability, 7 days); format: cell-based; details: Homo sapiens, 168 h, MDA-MB-436 cells
[2] = system: DLD-1 BRCA2(−/−); assay: as above; format: cell-based; details: Homo sapiens, 168 h, DLD-1 BRCA2(-/-) cells

Structure (SMILES) | EC50 [1] | EC50 [2]
[2H]C([2H])([2H])NC(=O)c1ccc(N2CCN(Cc3cnc4cc(CC)c(=O)[nH]c4c3)[C@H]3C[C@H]32)cn1 (racemic) [Example 90] | 4.3 nM | 6.4 nM
CCc1cc2ncc(CN3CCN(c4ccc(NC(=O)[C@H]5CCO5)nc4)CC3)cc2[nH]c1=O (racemic) [Example 103] | 5.2 nM | 6.6 nM
CCc1cc2ncc(CN3CCN(c4cnc(C(=O)NC)c(F)c4)[C@H]4C[C@H]43)cc2[nH]c1=O (single isomer, unassigned) [Example 69] | 4.4 nM | 7.3 nM
CNC(=O)c1ccc(N2CCN(Cc3cnc4c(c3)[nH]c(=O)c3ccoc34)[C@@H]3C[C@@H]32)cn1 (single isomer, unassigned) [Example 85] | 13 nM | 14 nM
CCc1cc2ncc(CN3CCN(c4ccc(C(=O)NC5COC5)nc4)[C@@H]4C[C@@H]43)cc2[nH]c1=O (single isomer, unassigned) [Example 88] | 3.8 nM | 4.2 nM
[2H]C([2H])([2H])NC(=O)c1ccc(N2CCN(Cc3cnc4cc(CC)c(=O)[nH]c4c3)[C@@H]3C[C@@H]32)cn1 (single isomer, unassigned) [Example 96] | 1.7 nM | 2.9 nM
[2H]C([2H])([2H])NC(=O)c1ccc(N2CCN(Cc3cnc4cc(C5CC5)c(=O)[nH]c4c3)[C@H]3C[C@H]32)cn1 (single isomer, unassigned) [Example 107] | 2.5 nM | 9.1 nM
Cc1cc2ncc(CN3CCN(c4ccc(C(=O)NC5CC5)nc4)[C@@H]4C[C@@H]43)cc2[nH]c1=O (single isomer, unassigned) [Example 109] | 14 nM | 37 nM
CNC(=O)c1ccc(N2CCN(Cc3cnc4cc(C5CC5)c(=O)[nH]c4c3)[C@H]3C[C@H]32)cn1 (single isomer, unassigned) [Example 110] | 3.3 nM | 5.7 nM
CCc1cc2ncc(CN3CCN(c4ccc(C(=O)NC5CC5)nc4)[C@@H]4C[C@@H]43)cc2[nH]c1=O (single isomer, unassigned) [Example 111] | 1.8 nM | 4.6 nM
O=C(NC1CC1)c1ccc(N2CCN(Cc3cnc4cc(C5CC5)c(=O)[nH]c4c3)[C@H]3C[C@H]32)cn1 (single isomer, unassigned) [Example 112] | 3.3 nM | 7.8 nM
CNC(=O)c1ncc(N2CCN(Cc3cnc4cc(C5CC5)c(=O)[nH]c4c3)[C@H]3C[C@H]32)cc1F (single isomer, unassigned) [Example 113] | 20 nM | 45 nM
CCc1cc2ncc(CN3CCN(c4ccc(C(=O)NC)c(=O)n4C)[C@@H]4C[C@@H]43)cc2[nH]c1=O (single isomer, unassigned) [Example 114] | 5.1 nM | 11 nM
CNC(=O)c1ccc(N2CCN([C@@H](C)c3cnc4cc(C)c(=O)[nH]c4c3)C[C@H]2C)cn1 (single isomer, unassigned) [Example 121] | 35 nM | 43 nM
CNC(=O)c1ccc(N2CCN([C@H](C)c3cnc4cc(C)c(=O)[nH]c4c3)C[C@H]2C)cn1 (single isomer, unassigned) [Example 122] | 11 nM | 46 nM
Cc1cc2ncc([C@H](C)N3CCN(c4ccc(C(=O)NC5CC5)nc4)CC3)cc2[nH]c1=O (single isomer, unassigned) [Example 126] | 4.3 nM | 14 nM
Cc1cc2ncc([C@@H](C)N3CCN(c4ccc(C(=O)NC5CC5)nc4)CC3)cc2[nH]c1=O (single isomer, unassigned) [Example 127] | 7.3 nM | 15 nM
CCc1cc2ncc(CN3CCC(c4cnc(C(=O)NC)c(F)c4)CC3)cc2[nH]c1=O [Example 23, 5-{1-[(7-ethyl-6-oxo-5H-1,5-naphthyridin-3-yl)methyl]piperidin-4-yl}-3-fluoro-N-methylpyridine-2-carboxamide] | 2.2 nM | 6 nM
CCc1cc2ncc(CN3CC(N(C)c4ccc(C(=O)NC)nc4)C3)cc2[nH]c1=O [Example 26, 5-({1-[(7-ethyl-6-oxo-5H-1,5-naphthyridin-3-yl)methyl]azetidin-3-yl}(methyl)amino)-N-methylpyridine-2-carboxamide] | 39 nM | 33 nM

The next lines start with the values.

EC50 [1] | EC50 [2] | Structure (SMILES)
 | 4.1 nM | CCc1cc2ncc([C@@H](C)N3CCN(c4ccc(C(=O)NC)nc4)CC3)cc2[nH]c1=O (single isomer, unassigned) [Example 20]
0.9 nM | 1.7 nM | CCc1cc2ncc([C@H](C)N3CCN(c4ccc(C(=O)NC)nc4)CC3)cc2[nH]c1=O (single isomer, unassigned) [Example 21]
0.92 nM | 2.4 nM | CCc1cc2ncc(CN3CCN(c4ccc(C(=O)N[C@H]5CCCOC5)nc4)CC3)cc2[nH]c1=O (single isomer, unassigned) [Example 53]
1 nM | 2.8 nM | CCc1cc2ncc(CN3CCN(c4ccc(C(=O)N[C@@H]5CCCOC5)nc4)CC3)cc2[nH]c1=O (single isomer, unassigned) [Example 54]
0.98 nM | 1.6 nM | CCc1cc2ncc(CN3CCN(c4ccc(C(=O)NC)nc4C#N)[C@H]4C[C@H]43)cc2[nH]c1=O (single isomer, unassigned) [Example 76]
1.2 nM | 2 nM | CNC(=O)c1ccc(N2CCN(Cc3cnc4cc(C)c(=O)[nH]c4c3)[C@H]3C[C@H]32)c(C#N)n1 (single isomer, unassigned) [Example 98]
11 nM | 16 nM | CNC(=O)c1ccc(N2CCN(Cc3cnc4cc(C)c(=O)[nH]c4c3)[C@H]3C[C@H]32)cn1 (single isomer, unassigned) [Example 99]
17 nM | 7.5 nM | CNC(=O)c1ccc(N2CCN([C@@H](C)c3cnc4cc(C)c(=O)[nH]c4c3)CC2)cn1 (single isomer, unassigned) [Example 124]
13 nM | 8.5 nM | CNC(=O)c1ccc(N2CCN([C@H](C)c3cnc4cc(C)c(=O)[nH]c4c3)CC2)cn1 (single isomer, unassigned) [Example 125]
12 nM | 13 nM | CNC(=O)c1ccc(N2CCN(Cc3cnc4cc([C@@H]5CC5(F)F)c(=O)[nH]c4c3)CC2)cn1 (single isomer, unassigned) [Example 143]
2.3 nM | 5.1 nM | CNC(=O)c1ccc(N2CCN(Cc3ccc4c5c(c(=O)[nH]c4c3)CCO5)CC2)cn1 [Example 18, N-methyl-5-[4-({4-oxo-2H,3H,5H-furo[3,2-c]quinolin-7-yl}methyl)piperazin-1-yl]pyridine-2-carboxamide]
1.8 nM | 3.7 nM | CCc1cc2ncc(CN3CCN(c4ccc(-c5ncc[nH]5)nc4)CC3)cc2[nH]c1=O [Example 19, 3-ethyl-7-({4-[6-(1H-imidazol-2-yl)pyridin-3-yl]piperazin-1-yl}methyl)-1H-1,5-naphthyridin-2-one]
160 nM | 490 nM | CCc1cc2ncc(CN3CCN4c5ccc(C(=O)NC)nc5OC[C@@H]4C3)cc2[nH]c1=O [Example 22B, (10S)-12-[(7-ethyl-6-oxo-5H-1,5-naphthyridin-3-yl)methyl]-N-methyl-8-oxa-1,6,12-triazatricyclo[8.4.0.0^{2,7}]tetradeca-2,4,6-triene-5-carboxamide]
0.5 nM | 1.4 nM | CNC(=O)c1ccc(N2CCN(Cc3cnc4cc(C)c(=O)[nH]c4c3)CC2)c(C#N)n1 [Example 37]
